Laboratory results published in paper PMC6937553, “Structural and biochemical studies of the glucuronoyl esterase OtCE15A illuminate its interaction with lignocellulosic components” (The Journal of Biological Chemistry, 2019).
Values belong to the compound of their own block, whether it stands above or below them.

Experiments:
OtCE15A [1] = target: T1, OtCE15A (Opitutus terrae, UniProt B1ZMF4); experiment: X-ray crystal structure; assay type: binding
T1 construct: gene Oter_0116; recombinant in E. coli BL21 (DE3), purified as in earlier work; catalytic Ser-267, His-408, Glu-290, Asp-356

OtCE15A [2] = target: T1, OtCE15A; experiment: inhibition of BnzGlcA hydrolysis, coupled continuous assay (K-URONIC kit); assay type: biochemical; details: BnzGlcA as substrate (3.5 mM or 350 μM)
OtCE15A [3] = target: T1, OtCE15A; experiment: as above; assay type: biochemical; details: BnzGlcA as substrate (3.5 mM or 350 μM); remark: listed apart in the source
OtCE15A [4] = target: T1, OtCE15A; experiment: continuous coupled esterase assay (K-URONIC kit); assay type: biochemical
Description: (§1) continuous coupled esterase assay (K-URONIC kit) on OtCE15A

OtCE15A [5] = target: T2, OtCE15A (Opitutus terrae, UniProt B1ZMF4, L269Y); experiment: continuous coupled esterase assay (K-URONIC kit); assay type: biochemical; details: substrate inhibition constant
T2 construct: gene Oter_0116; recombinant in E. coli BL21 (DE3), purified as in earlier work; catalytic Ser-267, His-408, Glu-290, Asp-356
Description: as §1

OtCE15A [6] = target: T1, OtCE15A; experiment: inhibition of BnzGlcA hydrolysis, coupled continuous assay (K-URONIC kit); assay type: biochemical; details: competitive; BnzGlcA as substrate

T1 sequence (B1ZMF4 entry or part of it): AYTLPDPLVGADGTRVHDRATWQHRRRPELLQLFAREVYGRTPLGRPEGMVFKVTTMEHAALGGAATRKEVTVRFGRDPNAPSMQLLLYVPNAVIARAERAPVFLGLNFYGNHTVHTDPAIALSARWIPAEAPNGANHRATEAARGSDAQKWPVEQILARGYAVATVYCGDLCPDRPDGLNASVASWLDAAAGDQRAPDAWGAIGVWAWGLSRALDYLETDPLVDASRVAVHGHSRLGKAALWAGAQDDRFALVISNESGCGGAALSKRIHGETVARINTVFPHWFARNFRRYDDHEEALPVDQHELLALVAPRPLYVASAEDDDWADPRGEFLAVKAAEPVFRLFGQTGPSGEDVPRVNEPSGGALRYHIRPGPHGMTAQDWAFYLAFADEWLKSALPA
T2 sequence (B1ZMF4 entry or part of it L269Y): as the sequence (B1ZMF4 entry or part of it) above, with L237Y counted along it

- % inhibition at up to 250 mM (OtCE15A [3]): < 10%
Compound: OC[C@H]1OC(O)[C@H](O)[C@@H](O)[C@@H]1O (some centres unmarked) [glucose]

- Km (OtCE15A [4]): 5.31 ± 0.51 mM
Compound: COC(=O)[C@H]1OC(O)[C@H](O)[C@@H](O)[C@H]1O (some centres unmarked) [MeGalA, methyl galacturonoate]

- Ksi (OtCE15A [5]): 34.5 ± 11.9 mM
Compound: COC(=O)[C@H]1OC(O)[C@H](O)[C@@H](O)[C@@H]1O (some centres unmarked) [MeGlcA, methyl glucuronoate]

Further lines, the compound ahead of its results:

Compound: O=C(O)[C@H]1OC(O)[C@H](O)[C@@H](O)[C@@H]1O (some centres unmarked) [GlcA, glucuronate]
- X-ray crystal structure (OtCE15A [1]; active site): We determined the structure of the WT OtCE15A in complex with the product GlcA

Compound: CO[C@H]1[C@H](O)[C@@H](O)[C@@H](O[C@H]2[C@H](O[C@@H]3COC(O)[C@H](O)[C@H]3O)OC[C@@H](O[C@@H]3OC[C@@H](O)[C@H](O)[C@H]3O)[C@@H]2O)O[C@@H]1C(=O)O (stereo partly drawn) [XUX, 2^3-(4-O-methyl-α-D-glucuronyl)-xylotriose]
- X-ray crystal structure (OtCE15A [1]; active site, no variant named, taken as wild type): OtCE15A in complex with the glucuronoxylan oligosaccharide XUX (PDB code 6T0I)

Compound: OC1OC[C@@H](O[C@@H]2OC[C@@H](O)[C@H](O)[C@H]2O)[C@H](O)[C@H]1O (some centres unmarked) [xylobiose]
- X-ray crystal structure (OtCE15A [1]; active site and second site about 25 Å away, no variant named, taken as wild type): showing the two xylobiose-binding sites (PDB code 6SYU)
- % reduction of activity at 100 mM (OtCE15A [2]): ~ 50%

Compound: OC1OC[C@@H](O)[C@H](O)[C@H]1O (some centres unmarked) [xylose]
- Ki (OtCE15A [6]): 48.1 mM
